# Patent publication US20120083522A1, “MODULATION OF INFLAMMATORY RESPONSES BY FACTOR XI” (Isis Pharmaceuitcals, inc., priority 2009, published 2012)
# In the oligonucleotide strings, read from the 5' end, every base follows the letter of its sugar. An asterisk marks phosphorothioate; unmarked linkages are phosphodiester. Other units and linkages are bracketed, terminal groups are in braces. A string of capitals states the bases alone. e = 2'-O-(2-methoxyethyl) (MOE); [5mC] = 5-methylcytosine; d = 2'-deoxy (DNA)
# Test: Cynomolgus monkeys: body and organ weights (Example 29)
# Type: in vivo
# In short: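 Monkeys (2 male, 3 female per group) dosed s.c. with antisense oligonucleotide, escalating 5→10→25 mg/kg two to three times weekly over 12 weeks (one chronic arm capped at 10 mg/kg); PBS controls. Body weights taken weekly; liver, kidney and spleen weighed after euthanasia on day 85.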
substance,measurement,setting,value
ISIS 416850: gapmer of Table 8 (antisense eT*eG*e[5mC]*eA*e[5mC]*dA*dG*dT*dT*dT*d[5mC]*dT*dG*dG*d[5mC]*eA*eG*eG*e[5mC]*e[5mC]),Body weight,"chronic, lower dose regimen (*) 5 then 10 mg/kg s.c., day 1",2665 g
same,Body weight,"chronic, lower dose regimen (*) 5 then 10 mg/kg s.c., day 8",2579 g
same,Body weight,"chronic, lower dose regimen (*) 5 then 10 mg/kg s.c., day 15",2607 g
same,Body weight,"chronic, lower dose regimen (*) 5 then 10 mg/kg s.c., day 22",2661 g
same,Body weight,"chronic, lower dose regimen (*) 5 then 10 mg/kg s.c., day 29",2667 g
same,Body weight,"chronic, lower dose regimen (*) 5 then 10 mg/kg s.c., day 36",2656 g
same,Body weight,"chronic, lower dose regimen (*) 5 then 10 mg/kg s.c., day 43",2670 g
same,Body weight,"chronic, lower dose regimen (*) 5 then 10 mg/kg s.c., day 50",2679 g
same,Body weight,"escalating doses 5, 10, 25 mg/kg s.c., day 1",2572 g
same,Body weight,"escalating doses 5, 10, 25 mg/kg s.c., day 8",2430 g
same,Body weight,"escalating doses 5, 10, 25 mg/kg s.c., day 15",2474 g
same,Body weight,"escalating doses 5, 10, 25 mg/kg s.c., day 22",2514 g
same,Body weight,"escalating doses 5, 10, 25 mg/kg s.c., day 29",2515 g
same,Body weight,"escalating doses 5, 10, 25 mg/kg s.c., day 36",2545 g
same,Body weight,"escalating doses 5, 10, 25 mg/kg s.c., day 43",2544 g
same,Body weight,"escalating doses 5, 10, 25 mg/kg s.c., day 50",2613 g
same,Body weight,"escalating doses 5, 10, 25 mg/kg s.c., day 57",2629 g
same,Body weight,"escalating doses 5, 10, 25 mg/kg s.c., day 64",2642 g
same,Body weight,"escalating doses 5, 10, 25 mg/kg s.c., day 71",2769 g
same,Body weight,"escalating doses 5, 10, 25 mg/kg s.c., day 78",2660 g
